Laboratory results as given in patent US20120171126A1, “NOVEL [3,2-c] HETEROARYL STEROIDS AS GLUCOCORTICOID RECEPTOR AGONISTS COMPOSITIONS AND USES THEREOF” (priority 2009, published 2012).

The compounds below were run on IL-8 (assay: Glucocorticoid transrepression assay, IL-8 inhibition (TR)). Conditions: Homo sapiens; Table 1; NCl-H292 cells, TNFα 10 ng/ml.
Assay type: cell-based
Experimental: Human Lung epithelial cell line NCl-H292 cells were dissociated from stock flask using 0.05% trypsin/0.53 mM EDTA. Cells were suspended in complete medium and counted. Cells were plated in 96-well flat-bottom plates at 20K cells /well in 0.2 ml/well. Plates were incubated for 24-48 hours until cells were between 75-90% confluent. Medium was aspirated and replaced with medium containing various concentrations of steroids or antagonists. After 1 hour incubation at 37°, TNFα (10 ng/ml final concentration in 0.2 ml) was added and the cells incubated overnight. Control wells with and without TNF were included on each plate, as well as wells with TNF in addition to a maximum (10 μM) concentration of dexamethasone. The cell culture medium was sampled and IL-6 and IL-8 cytokine production was measured using the MSD Multi-Spot immunoassay.

Row | Compound | IC50 [nM]
1 | CC12Cc3cnn(CCC#N)c3C=C1CCC1C2[C@@H](O)CC2(C)C1CC[C@]2(O)C(=O)CSc1nc2ccccc2[nH]1 (stereo partly shown) [Compound 52] | 401 to 1000
2 | CC12Cc3cnn(C4CCOCC4)c3C=C1CCC1C2[C@@H](O)CC2(C)C1CC[C@]2(O)C(=O)CSc1nc2ccccc2s1 (stereo partly shown) [Compound 69] | 66 to 400
3 | CC12Cc3cnn(CCC#N)c3C=C1CCC1C2[C@@H](O)CC2(C)C1CC[C@]2(O)C(=O)CSc1ncccn1 (stereo partly shown) [Compound 54] | 401 to 1000
4 | Cc1ccnc(SCC(=O)[C@@]2(O)CCC3C4CCC5=Cc6c(cnn6-c6ccc(F)cc6)CC5(C)C4[C@@H](O)CC32C)n1 (stereo partly shown) [Compound 97] | 0.06 to 20
5 | Cn1c(SCC(=O)[C@@]2(O)CCC3C4CCC5=Cc6c(cnn6-c6ccccn6)CC5(C)C4[C@@H](O)CC32C)nc2ccccc21 (stereo partly shown) [Compound 34] | 66 to 400
6 | CC12Cc3cnn(-c4ccccn4)c3C=C1CCC1C2[C@@H](O)CC2(C)C1CC[C@]2(O)C(=O)CSc1nc2cccnc2s1 (stereo partly shown) [Compound 42] | 66 to 400
7 | CC12Cc3cnn(-c4ccccn4)c3C=C1CCC1C2[C@@H](O)CC2(C)C1CC[C@]2(O)C(=O)CSc1nc2ccccc2s1 (stereo partly shown) [Compound 35] | 66 to 400
8 | Cc1ccnc(SCC(=O)[C@@]2(O)CCC3C4CCC5=Cc6c(cnn6CCC#N)CC5(C)C4[C@@H](O)CC32C)n1 (stereo partly shown) [Compound 59] | 66 to 400
9 | COc1ccc(-n2ncc3c2C=C2CCC4C([C@@H](O)CC5(C)C4CC[C@]5(O)C(=O)CSc4ccccn4)C2(C)C3)cc1 (stereo partly shown) [Compound 88] | 66 to 400
10 | CC12Cc3cnn(-c4ccc(F)cc4)c3C=C1CCC1C2[C@@H](O)CC2(C)C1CC[C@]2(O)C(=O)CSc1ccccn1 (stereo partly shown) [Compound 5] | 0.06 to 20
11 | CC12Cc3cnn(-c4ccccc4)c3C=C1CCC1C2[C@@H](O)CC2(C)C1CC[C@]2(O)C(=O)COc1ccc2ccccc2c1 (stereo partly shown) [Compound 117] | 0.06 to 20
12 | CC12Cc3cnn(CCC#N)c3C=C1CCC1C2[C@@H](O)CC2(C)C1CC[C@]2(O)C(=O)CSc1nc2ccccc2o1 (stereo partly shown) [Compound 50] | 66 to 400
13 | CC12Cc3cnn(-c4ccccc4)c3C=C1CCC1C2[C@@H](O)CC2(C)C1CC[C@]2(O)C(=O)CSc1ccccn1 (stereo partly shown) [Compound 16] | 0.06 to 20
14 | CC12Cc3cnn(-c4ccccc4)c3C=C1CCC1C2[C@@H](O)CC2(C)C1CC[C@]2(O)C(=O)COc1ccccn1 (stereo partly shown) [Compound 122] | 0.06 to 20
15 | CC12Cc3cnn(C4CCOCC4)c3C=C1CCC1C2[C@@H](O)CC2(C)C1CC[C@]2(O)C(=O)CSc1nc2ncccc2o1 (stereo partly shown) [Compound 72] | 21 to 65
16 | CC12Cc3cnn(C4CCCCC4)c3C=C1CCC1C2[C@@H](O)CC2(C)C1CC[C@]2(O)C(=O)CSc1nc(-c2ccccc2)cs1 (stereo partly shown) [Compound 133] | 21 to 65
17 | CC12Cc3cnn(-c4ccccn4)c3C=C1CCC1C2[C@@H](O)CC2(C)C1CC[C@]2(O)C(=O)CSc1nc2ccccc2[nH]1 (stereo partly shown) [Compound 38] | 401 to 1000
18 | CC12Cc3cnn(-c4ccccc4)c3C=C1CCC1C2[C@@H](O)CC2(C)C1CC[C@]2(O)C(=O)COc1nc2ccccc2[nH]1 (stereo partly shown) [Compound 118] | 0.06 to 20
19 | CC12Cc3cnn(C4CCOCC4)c3C=C1CCC1C2[C@@H](O)CC2(C)C1CC[C@]2(O)C(=O)CSc1ccccn1 (stereo partly shown) [Compound 73] | 0.06 to 20
20 | Cn1c(SCC(=O)[C@@]2(O)CCC3C4CCC5=Cc6c(cnn6-c6ccc(F)cc6)CC5(C)C4[C@@H](O)CC32C)nc2cc(S(N)(=O)=O)ccc21 (stereo partly shown) [Compound 123] | 0.06 to 20
21 | CC12Cc3cnn(-c4ccc(F)cc4)c3C=C1CCC1C2[C@@H](O)CC2(C)C1CC[C@]2(O)C(=O)CSc1nc(-c2ccccc2)c(-c2ccccc2)o1 (stereo partly shown) [Compound 96] | 66 to 400
22 | Cn1c(OCC(=O)[C@@]2(O)CCC3C4CCC5=Cc6c(cnn6-c6ccc(F)cc6)CC5(C)C4[C@@H](O)CC32C)nc2ccccc21 (stereo partly shown) [Compound 112] | 0.06 to 20

Same assay, conditions: Homo sapiens; Table 1; NCl-H292 cells, TNFα 10 ng/ml; read-out: IL-8 inhibition (TR) Emax % inhibition

Row | Compound | Emax [%]
23 | CC12Cc3cnn(CCC#N)c3C=C1CCC1C2[C@@H](O)CC2(C)C1CC[C@]2(O)C(=O)CSc1cnc2ccccc2n1 (stereo partly shown) [Compound 58] | < 60
24 | CC12Cc3cnn(CCC#N)c3C=C1CCC1C2[C@@H](O)CC2(C)C1CC[C@]2(O)C(=O)CSc1nc2ccccc2[nH]1 (stereo partly shown) [Compound 52] | < 60
25 | CC12Cc3cnn(C4CCOCC4)c3C=C1CCC1C2[C@@H](O)CC2(C)C1CC[C@]2(O)C(=O)CSc1nc2ccccc2s1 (stereo partly shown) [Compound 69] | 70 to 80
26 | CC12Cc3cnn(CCC#N)c3C=C1CCC1C2[C@@H](O)CC2(C)C1CC[C@]2(O)C(=O)CSc1ncccn1 (stereo partly shown) [Compound 54] | < 60
27 | Cc1ccccc1-n1ncc2c1C=C1CCC3C([C@@H](O)CC4(C)C3CC[C@]4(O)C(=O)CSc3ccc4ccccc4n3)C1(C)C2 (stereo partly shown) [Compound 81] | < 60
28 | Cc1ccnc(SCC(=O)[C@@]2(O)CCC3C4CCC5=Cc6c(cnn6-c6ccc(F)cc6)CC5(C)C4[C@@H](O)CC32C)n1 (stereo partly shown) [Compound 97] | > 80
29 | Cn1c(SCC(=O)[C@@]2(O)CCC3C4CCC5=Cc6c(cnn6-c6ccccn6)CC5(C)C4[C@@H](O)CC32C)nc2ccccc21 (stereo partly shown) [Compound 34] | 60 to 70
30 | CC12Cc3cnn(-c4ccccn4)c3C=C1CCC1C2[C@@H](O)CC2(C)C1CC[C@]2(O)C(=O)CSc1nc2cccnc2s1 (stereo partly shown) [Compound 42] | 70 to 80
31 | CC12Cc3cnn(-c4ccccn4)c3C=C1CCC1C2[C@@H](O)CC2(C)C1CC[C@]2(O)C(=O)CSc1nc2ccccc2s1 (stereo partly shown) [Compound 35] | 60 to 70
32 | Cc1ccnc(SCC(=O)[C@@]2(O)CCC3C4CCC5=Cc6c(cnn6CCC#N)CC5(C)C4[C@@H](O)CC32C)n1 (stereo partly shown) [Compound 59] | 60 to 70
33 | COc1ccc(-n2ncc3c2C=C2CCC4C([C@@H](O)CC5(C)C4CC[C@]5(O)C(=O)CSc4ccccn4)C2(C)C3)cc1 (stereo partly shown) [Compound 88] | 60 to 70
34 | CC12Cc3cnn(-c4ccc(F)cc4)c3C=C1CCC1C2[C@@H](O)CC2(C)C1CC[C@]2(O)C(=O)CSc1ccccn1 (stereo partly shown) [Compound 5] | > 80
35 | CC12Cc3cnn(-c4ccccc4)c3C=C1CCC1C2[C@@H](O)CC2(C)C1CC[C@]2(O)C(=O)COc1ccc2ccccc2c1 (stereo partly shown) [Compound 117] | > 80
36 | CC12Cc3cnn(CCC#N)c3C=C1CCC1C2[C@@H](O)CC2(C)C1CC[C@]2(O)C(=O)CSc1nc2ccccc2o1 (stereo partly shown) [Compound 50] | 70 to 80
37 | CC12Cc3cnn(-c4ccccc4)c3C=C1CCC1C2[C@@H](O)CC2(C)C1CC[C@]2(O)C(=O)CSc1ccccn1 (stereo partly shown) [Compound 16] | > 80
38 | CC12Cc3cnn(-c4ccccc4)c3C=C1CCC1C2[C@@H](O)CC2(C)C1CC[C@]2(O)C(=O)COc1ccccn1 (stereo partly shown) [Compound 122] | > 80
39 | CC12Cc3cnn(C4CCOCC4)c3C=C1CCC1C2[C@@H](O)CC2(C)C1CC[C@]2(O)C(=O)CSc1nc2ncccc2o1 (stereo partly shown) [Compound 72] | > 80
40 | CC12Cc3cnn(C4CCCCC4)c3C=C1CCC1C2[C@@H](O)CC2(C)C1CC[C@]2(O)C(=O)CSc1nc(-c2ccccc2)cs1 (stereo partly shown) [Compound 133] | > 80
41 | CC12Cc3cnn(-c4ccccn4)c3C=C1CCC1C2[C@@H](O)CC2(C)C1CC[C@]2(O)C(=O)CSc1nc2ccccc2[nH]1 (stereo partly shown) [Compound 38] | 60 to 70
42 | CC12Cc3cnn(-c4ccccc4)c3C=C1CCC1C2[C@@H](O)CC2(C)C1CC[C@]2(O)C(=O)COc1nc2ccccc2[nH]1 (stereo partly shown) [Compound 118] | > 80
43 | CC12Cc3cnn(C4CCOCC4)c3C=C1CCC1C2[C@@H](O)CC2(C)C1CC[C@]2(O)C(=O)CSc1ccccn1 (stereo partly shown) [Compound 73] | > 80
44 | Cn1c(SCC(=O)[C@@]2(O)CCC3C4CCC5=Cc6c(cnn6-c6ccc(F)cc6)CC5(C)C4[C@@H](O)CC32C)nc2cc(S(N)(=O)=O)ccc21 (stereo partly shown) [Compound 123] | > 80
45 | CC12Cc3cnn(-c4ccc(F)cc4)c3C=C1CCC1C2[C@@H](O)CC2(C)C1CC[C@]2(O)C(=O)CSc1nc(-c2ccccc2)c(-c2ccccc2)o1 (stereo partly shown) [Compound 96] | > 80
46 | Cn1c(OCC(=O)[C@@]2(O)CCC3C4CCC5=Cc6c(cnn6-c6ccc(F)cc6)CC5(C)C4[C@@H](O)CC32C)nc2ccccc21 (stereo partly shown) [Compound 112] | > 80
